Laboratory results taken from patent US20220160872A1, “Drug Adsorbed Highly Porous Activated Carbon for Enhanced Drug Delivery” (THE BOARD OF TRUSTEES OF THE UNIVERSITY OF ILLINOIS, priority 2019, published 2022).

Key:
[1] = system: HSV-1; test: Prophylactic and therapeutic DECON treatment of HCEs with HSV-1 infection in vitro; format: cell-based; conditions: prophylactically added
Method: Cell monolayer was washed twice with PBS before whole media with required HSV infection was added.
To comprehensively test the efficacy of drug release and resulting antiviral activity of DECON particles, a prophylactic and therapeutic model of treatment was used on HCEs followed by HSV-1 infection in vitro.
Flow cytometry was conducted on the samples at 24 hpi showing the extent of cells infected with HSV-1 GFP (see FIG. 8C). FIG. 8d provides representative immunoblots for samples showing HSV-1 gB protein in comparison with GAPDH for HSV-1 infected HCEs at 24 hpi.

[2] = system: HSV-2 (333 strain); test: Murine model of vaginal HSV-2 infection; format: in vivo, BALB/c mice
Method: Naïve 4-week-old female BALB/c mice were purchased from Jackson Laboratory (Bar Harbor, USA) and housed in the university BRL for a period of one week for acclimatization before they were subcutaneously injected with 2 mg of medroxyprogesterone (Depo-Provera) per mice. On day 5 post injection, mice were intravaginally infected with 1×10^6 PFU HSV-2 (333 strain). Similar to the ocular model of infection, DECON was applied topically (intravaginally) on alternate days while ACV (50 mg/mL in PBS) was administered via an intraperitoneal injection. PBS was applied intravaginally as mock treatment for the control group. Vaginal swabs were collected using a Calgiswab (Calcium Alginate Mini-tip Urethro-Genital Swab, Puritan) dipped in OptiMEM (Gibco, USA). Images of the ano-genital region were taken on day 0 and day 7 post infection using a Carl Zeiss stereoscope at 7.5× magnification.
Experiments involving animals were performed under a UIC approved protocol ACC 14-091. The mice were monitored for weight loss and disease scores were recorded in a blinded fashion for 14 days. Sick mice were euthanized according to the IUCAC protocol followed by the collection of ocular/vaginal tissue and lymph nodes. Ocular wash and vaginal swabs were used to assess viral titers using a plaque assay.
With the success of topical ocular therapy with DECON, it was investigated whether this delivery platform was effective for vaginal HSV-2 infections as well. Naïve Balb/c mice were primed with medroxyprogestrone 5 days prior to intravaginal HSV-2 infection. Starting at day 1 post infection, mice were either treated with topical DECON or systemic ACV (5 mg/kg) by intraperitoneal injections […], DECON was administered intravaginally […]. The genital area was imaged using a stereoscope on days 0 and 7 to visualize the extent of damage done to the site of infection. […] This was observed by the phenotype of infection and analyzed by plaque assays from vaginal swabs. […] In the mock treated group, 60% of mice succumbed to death by day 14 post infection, while 20% of mice treated with systemic ACV and none of DECON treated mice succumbed to death (FIG. 5D).

[3] = system: HSV-1 (McKrae); format: in vivo

SMILES | antiviral response [1] | mice succumbed to death ([2]; by day 14 post infection) [%] | inflammation of vaginal and anogenital area ([2]; compared to mock-treated mice) | viral titers, plaque assays from vaginal swabs ([2]; day 4 and day 7 post infection, DECON intravaginal, ACV 5 mg/kg intraperitoneal) | lymph node size ([2]; day 14 post infection) | mice succumbed to death ([3]; by day 15, topical treatment on alternate days) | viral replication / infection vs mock treated ([3]; topical, alternate days, ocular washes)
Nc1nc2c(ncn2COCCO)c(=O)[nH]1 [ACV, Acyclovir] | did not elicit a robust antiviral response | 20 | only slight inflammation | steady reduction in viral titers | little to no increase in size |  | 
O=c1[nH]c(=O)n([C@H]2C[C@H](O)[C@@H](CO)O2)cc1C(F)(F)F [TFT, trifluridine] |  |  |  |  |  | Up to 20% | did not show any significant reduction in viral replication
